Laboratory results taken from ChEMBL document CHEMBL5032500, “Adenosine A2AR/A1R Antagonists Enabling Additional H3R Antagonism for the Treatment of Parkinson's Disease” (J Med Chem, 2021).

Assays:
Adenosine receptor A1 = molecular target: T1, Adenosine receptor A1 (Homo sapiens, UniProt P30542); test: Displacement of [3H]CCPA from human recombinant adenosine A1 receptor expressed in CHO cells by liquid scintillation counting analysis; assay type: cell-based
T1 sequence (P30542 whole entry): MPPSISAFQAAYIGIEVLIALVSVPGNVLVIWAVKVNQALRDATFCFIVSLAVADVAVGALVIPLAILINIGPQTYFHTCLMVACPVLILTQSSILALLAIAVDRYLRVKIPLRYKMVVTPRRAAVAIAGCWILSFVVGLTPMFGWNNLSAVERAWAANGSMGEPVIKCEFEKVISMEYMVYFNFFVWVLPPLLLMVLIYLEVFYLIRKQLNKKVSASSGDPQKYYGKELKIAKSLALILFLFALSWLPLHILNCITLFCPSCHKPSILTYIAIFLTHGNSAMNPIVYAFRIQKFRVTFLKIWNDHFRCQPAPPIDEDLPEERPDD

Adenosine receptor A2a [1] = molecular target: T2, Adenosine receptor A2a (Homo sapiens, UniProt P29274); test: Displacement of [3H]MSX-2 from human recombinant adenosine A2A receptor expressed in CHO cells by liquid scintillation counting analysis; assay type: cell-based
T2 sequence (P29274 whole entry): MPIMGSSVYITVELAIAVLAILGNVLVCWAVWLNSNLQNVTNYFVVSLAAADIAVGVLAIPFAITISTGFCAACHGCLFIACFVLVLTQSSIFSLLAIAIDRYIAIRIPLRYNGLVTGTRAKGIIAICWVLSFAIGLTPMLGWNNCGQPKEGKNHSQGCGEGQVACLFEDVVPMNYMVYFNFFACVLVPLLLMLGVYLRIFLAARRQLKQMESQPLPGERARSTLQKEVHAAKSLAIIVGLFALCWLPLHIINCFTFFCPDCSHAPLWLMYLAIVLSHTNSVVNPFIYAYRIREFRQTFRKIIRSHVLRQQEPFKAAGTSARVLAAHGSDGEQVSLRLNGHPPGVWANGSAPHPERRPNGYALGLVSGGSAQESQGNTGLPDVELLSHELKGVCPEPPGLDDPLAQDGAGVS

Adenosine receptor A2b = molecular target: T3, Adenosine receptor A2b (Homo sapiens, UniProt P29275); test: Displacement of [3H]PSB-603 from human recombinant adenosine A2B receptor expressed in CHO cells by liquid scintillation counting analysis; assay type: cell-based
T3 sequence (P29275 whole entry): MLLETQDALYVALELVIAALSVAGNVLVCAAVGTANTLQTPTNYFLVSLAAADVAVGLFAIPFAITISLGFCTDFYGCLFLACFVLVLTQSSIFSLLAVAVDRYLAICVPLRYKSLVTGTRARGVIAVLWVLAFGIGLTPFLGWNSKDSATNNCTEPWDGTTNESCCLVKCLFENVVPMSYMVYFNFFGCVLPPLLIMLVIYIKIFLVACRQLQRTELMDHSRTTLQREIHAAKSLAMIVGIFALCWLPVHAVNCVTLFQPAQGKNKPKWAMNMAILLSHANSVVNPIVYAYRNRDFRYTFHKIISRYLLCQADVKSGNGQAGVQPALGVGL

Adenosine receptor A3 = molecular target: T4, Adenosine receptor A3 (Homo sapiens, UniProt P0DMS8); test: Displacement of [3H]PSB-11 from human recombinant adenosine A3 receptor expressed in CHO cells by liquid scintillation counting analysis; assay type: cell-based
T4 sequence (P0DMS8 whole entry): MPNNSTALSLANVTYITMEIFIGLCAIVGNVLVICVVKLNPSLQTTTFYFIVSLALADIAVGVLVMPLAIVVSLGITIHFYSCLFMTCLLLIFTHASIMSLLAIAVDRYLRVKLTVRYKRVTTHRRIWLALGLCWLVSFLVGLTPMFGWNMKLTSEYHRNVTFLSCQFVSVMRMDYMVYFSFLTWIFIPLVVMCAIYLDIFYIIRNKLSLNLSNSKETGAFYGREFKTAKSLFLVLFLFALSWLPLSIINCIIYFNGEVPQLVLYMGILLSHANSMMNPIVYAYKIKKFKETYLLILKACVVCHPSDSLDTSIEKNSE

Histamine H3 receptor = Histamine H3 receptor (Homo sapiens, UniProt Q9Y5N1); test: Displacement of [3H] N-alpha methylhistamine from human recombinant histamine H3 receptor expressed in HEK293 cells measured after 90 mins; assay type: cell-based
Chain of Histamine H3 receptor (Q9Y5N1 whole entry): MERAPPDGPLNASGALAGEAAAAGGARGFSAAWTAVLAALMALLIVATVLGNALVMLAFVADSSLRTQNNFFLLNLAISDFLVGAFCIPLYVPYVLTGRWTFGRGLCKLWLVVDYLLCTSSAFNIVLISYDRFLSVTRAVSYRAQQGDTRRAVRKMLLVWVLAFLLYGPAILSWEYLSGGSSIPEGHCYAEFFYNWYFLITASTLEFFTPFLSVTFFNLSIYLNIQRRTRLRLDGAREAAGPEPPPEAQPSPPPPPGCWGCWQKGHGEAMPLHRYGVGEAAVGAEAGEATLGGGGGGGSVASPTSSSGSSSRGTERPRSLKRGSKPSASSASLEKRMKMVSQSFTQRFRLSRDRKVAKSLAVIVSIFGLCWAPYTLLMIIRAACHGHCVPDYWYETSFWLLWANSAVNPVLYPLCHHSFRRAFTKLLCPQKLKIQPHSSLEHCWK

[2] = molecular target: T5, Adenosine receptor A1 (Homo sapiens) (UniProt P30542); test: Displacement of [3H]CCPA from human recombinant adenosine A1 receptor expressed in CHO cells at 1 uM by liquid scintillation counting analysis; assay type: cell-based
T5 sequence (whole entry): T1 sequence (P30542 whole entry)

Adenosine receptor A2a [3] = molecular target: T2, Adenosine receptor A2a; test: Displacement of [3H]MSX-2 from human recombinant adenosine A2A receptor expressed in CHO cells at 1 uM by liquid scintillation counting analysis; assay type: cell-based
[4] = molecular target: T6, Adenosine receptor A2b (Homo sapiens) (UniProt P29275); test: Displacement of [3H]PSB-603 from human recombinant adenosine A2B receptor expressed in CHO cells at 1 uM by liquid scintillation counting analysis; assay type: cell-based
T6 sequence (whole entry): T3 sequence (P29275 whole entry)

[5] = molecular target: T7, Adenosine receptor A3 (Homo sapiens) (UniProt P0DMS8); test: Displacement of [3H]PSB-11 from human recombinant adenosine A3 receptor expressed in CHO cells at 1 uM by liquid scintillation counting analysis; assay type: cell-based
T7 sequence (whole entry): T4 sequence (P0DMS8 whole entry)

SH-SY5Y = test: Cytotoxicity against human SH-SY5Y cells assessed as remaining cell viability at 1000 nM incubated for 24 hrs; assay type: functional

| Ki (Adenosine receptor A1) [nM] | Ki (Adenosine receptor A2a [1]) [nM] | Ki (Adenosine receptor A2b) [nM] | Ki (Adenosine receptor A3) [nM] | Ki (Histamine H3 receptor) [nM] | inhibition [2] [%] | inhibition (Adenosine receptor A2a [3]) [%] | inhibition [4] [%] | inhibition [5] [%] | inhibition (Adenosine receptor A2a [3]; filed as antagonist) [%] | Structure (SMILES) | Activity (SH-SY5Y) [%] |
| --- | --- | --- | --- | --- | --- | --- | --- | --- | --- | --- | --- |
| > 1000 | > 1000 | > 1000 | > 1000 | 2.3 | 24 | 34 | 34 | 39 |  | Nc1nc(-c2ccccc2)c2c(n1)-c1ccc(OCCCN3CCCCC3)cc1C2 |  |
| 2510 | 717 | > 1000 | > 1000 | 0.49 |  |  | 28 | 24 |  | Nc1nc(-c2ccc(OCCCN3CCCCC3)cc2)c2c(n1)-c1ccccc1C2 |  |
| 828 | > 1000 | > 1000 | > 1000 | 11 |  |  | 25 | 35 | 40 | Nc1nc(-c2ccccc2)c2c(n1)-c1ccc(OCCCN3CCCC3)cc1C2 | >75 |
| > 1000 | > 1000 | > 1000 | > 1000 |  | -5 | -3 | 0 | -2 |  | O=C(c1ccc(OCCCN2CCCCC2)cc1)C1CC1 |  |
